Measured values: patent publication US10124004B2, “Pyrido[3,4-d]pyrimidine derivative and pharmaceutically acceptable salt thereof” (Teijin Pharma Limited, priority 2015, dated 2018)

Legend:
Type in all cases: biochemical
CDK4/cyclin D3 = molecular target: T1, CDK4/cyclin D3 (Homo sapiens, UniProt P11802); test: Human CDK4/cyclin D3 inhibitory activity (QS S Assist CDK4/Cyclin D3_FP Kit, IMAP fluorescence polarization); details: 50% inhibitory concentration against CDK4/cyclin D3, given as class symbol
T1 construct: purchased Carna Biosciences, Inc. QS S Assist CDK4/Cyclin D3_FP Kit
How it was run: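 IMAP fluorescence-polarization kinase assay with kit ATP/substrate/metal mix and 12.5 to 25 ng/well enzyme in 20 mM HEPES pH 7.4, 0.01% Tween20, 2 mM DTT. Reaction ran 45 min at room temperature, then binding reagent was added for 30 min in the dark. IC50 was taken from dose-response fits of percent inhibition.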

CDK2/cyclin A2 = molecular target: T2, CDK2/cyclin A2 (Homo sapiens, UniProt P24941); test: Human CDK2/cyclin A2 inhibitory activity (QS S Assist CDK2/Cyclin A2_FP Kit, IMAP fluorescence polarization); details: 50% inhibitory concentration against CDK2/cyclin A2, given as class symbol
T2 construct: purchased Carna Biosciences, Inc. QS S Assist CDK2/Cyclin A2_FP Kit
How it was run: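 Kinase activity read as fluorescence polarization (485/535 nm) after phosphorylated fluorescent substrate binds IMAP reagent (30 min, RT, dark). Enzyme (2.5 ng/well) reacted 60 min at RT with ATP/substrate/metal in HEPES pH 7.4 buffer with Tween 20 and DTT; no-enzyme wells define 0% activity; IC50 by curve fit.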

CDK6/cyclin D3 = CDK6/cyclin D3 (Homo sapiens, UniProt Q00534); test: Human CDK6/cyclin D3 inhibitory activity (off-chip mobility shift assay); details: 50% inhibitory concentration against CDK6/cyclin D3; 300 μM ATP, room temperature, five hours; read-out: CDK6 Activity Symbol
Procedure: Human CDK6/Cyclin D3 Inhibitory Activity
CDK6/cyclin D3 inhibitory activity was determined by the off-chip mobility shift assay (MSA). The MSA separates proteins from one another on the basis of a difference in electrophoretic mobility depending on the molecular weight or electric charge of the proteins. The kinase activity is determined by quantifying the degree of phosphorylation through electrophoretic analysis of a positive to negative change in electric charge of the substrate phosphorylated by the kinase.
Each solution was prepared with an assay buffer containing 20 mM HEPES (pH 7.5), 0.01% Triton X-100, and 2 mM dithiothreitol. A test compound solution was prepared by dilution of the test compound with dimethyl sulfoxide (DMSO) to a concentration 100 times higher than the final concentration and then 25-fold dilution with the assay buffer to a concentration four times higher than the final concentration. An ATP/substrate/metal solution was prepared to have a concentration four times higher than the final concentration. An enzyme solution was prepared to have a concentration twice higher than the final concentration. The final enzyme concentration was adjusted to an appropriate level on the basis of the enzyme activity signal and the inhibitory activity of a positive control compound.
The test compound solution (5 μL/well) and the ATP/substrate/metal solution (5 μL/well) were added to a 384-well plate, and the enzyme solution or the assay buffer (10 μL/well) was added to the plate (total amount of the reaction mixture: 20 μL/well) for initiation of enzymatic reaction. […] The reaction was performed at room temperature for five hours, and a termination buffer (QuickScout Screening Assist MSA, manufactured by Carna Biosciences, Inc.) (60 μL/well) was then added to the plate for termination of the reaction. Subsequently, the substrate peptide and the phosphorylated peptide in the reaction mixture were separated from each other and quantified with LabChip 3000 (manufactured by Caliper Lifesciences). The kinase reaction was evaluated by the product ratio (P/(P+S)) calculated from the peak height (S) of the substrate peptide and the peak height (P) of the phosphorylated peptide.
The percent inhibition of enzyme activity was calculated for each test compound (note: enzyme activity=100% in the case of addition of the enzyme solution and addition of DMSO instead of the test compound solution, whereas enzyme activity=0% in the case of addition of the assay buffer instead of the enzyme solution and addition of DMSO instead of the test compound solution). The percent inhibition of enzyme activity was fitted to a dose-response curve, to determine a 50% inhibitory concentration against CDK6/cyclin D3.
In each table, “+++” corresponds to IC50<10 nM, “++” 10 nM≤IC50<100 nM, and “+” 100 nM≤IC50.

T1 sequence (P11802 whole entry): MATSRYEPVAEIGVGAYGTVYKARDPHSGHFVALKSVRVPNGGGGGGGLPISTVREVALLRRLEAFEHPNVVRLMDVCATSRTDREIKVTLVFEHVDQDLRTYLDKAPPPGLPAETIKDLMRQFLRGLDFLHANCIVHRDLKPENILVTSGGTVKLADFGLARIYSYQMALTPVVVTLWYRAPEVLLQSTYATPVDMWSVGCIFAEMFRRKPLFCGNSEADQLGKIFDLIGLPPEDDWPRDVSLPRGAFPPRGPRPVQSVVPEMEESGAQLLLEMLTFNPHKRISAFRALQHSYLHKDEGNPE
T1 sequence (P30281 whole entry partner): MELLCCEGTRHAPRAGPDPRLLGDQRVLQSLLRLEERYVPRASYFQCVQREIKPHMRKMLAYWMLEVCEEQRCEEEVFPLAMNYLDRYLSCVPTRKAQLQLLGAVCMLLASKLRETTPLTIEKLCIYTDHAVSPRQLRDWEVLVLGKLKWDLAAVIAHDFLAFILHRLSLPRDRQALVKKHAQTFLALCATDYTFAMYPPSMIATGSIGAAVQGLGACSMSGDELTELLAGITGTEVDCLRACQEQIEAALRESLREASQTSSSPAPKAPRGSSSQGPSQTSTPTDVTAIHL
Chain of CDK6/cyclin D3 (Q00534 whole entry): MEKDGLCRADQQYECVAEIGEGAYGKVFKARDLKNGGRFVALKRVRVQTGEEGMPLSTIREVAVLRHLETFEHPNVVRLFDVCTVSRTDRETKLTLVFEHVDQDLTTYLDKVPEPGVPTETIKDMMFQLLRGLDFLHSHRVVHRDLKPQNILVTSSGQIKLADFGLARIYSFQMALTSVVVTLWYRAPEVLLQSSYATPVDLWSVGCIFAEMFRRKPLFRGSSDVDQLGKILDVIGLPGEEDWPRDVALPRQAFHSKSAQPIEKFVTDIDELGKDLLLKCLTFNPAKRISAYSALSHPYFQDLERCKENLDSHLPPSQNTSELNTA
Chain of CDK6/cyclin D3 (P30281 whole entry partner): as the sequence (P30281 whole entry partner) above

SMILES	IC50 (CDK4/cyclin D3) [nM]	IC50 (CDK2/cyclin A2) [nM]	IC50 (CDK6/cyclin D3) [nM]
CC(C)Nc1nc(C2CCCO2)cc2cnc(Nc3ccc(N4CCNCC4=O)cn3)nc12 (single isomer, unassigned) [Compound 672]	< 10	≥ 100	10 to 100
c1cc(N2CCNCC2)nnc1Nc1ncc2cc(C3CCOC3)nc(N[C@H]3CCCOC3)c2n1 (single isomer, unassigned) [Compound 938]	< 10	≥ 100	10 to 100
c1cc(Nc2ncc3cc(C4CCOC4)nc(N[C@H]4CCCOC4)c3n2)ncc1CN1CCNCC1 (single isomer, unassigned) [Compound 941]	< 10	≥ 100	< 10
CC(C)Nc1nc(C(F)F)cc2cnc(Nc3ccc(N4CCNCC4)cn3)nc12 [Compound 3, 6-difluoromethyl-8-isopropyl-2-(5-piperazin-1-ylpyridin-2-yl)pyrido[3,4-d]pyrimidine-2,8-diamine]	–	–	< 10
CC(C)Nc1nc([C@@H](C)O)cc2cnc(Nc3ccc(N4CCN(C(=O)CN(C)C)CC4)nn3)nc12 [Compound 1191]	< 10	≥ 100	–
CC(C)Nc1nc([C@@H](C)O)cc2cnc(Nc3ccc(CN4CCN(C(=O)C5CCCO5)CC4)cn3)nc12 (stereo partly drawn) [Compound 1192]	< 10	≥ 100	–
CC(C)Nc1nc([C@@H](C)O)cc2cnc(Nc3ccc(CN4CCN(C(=O)C5CCOC5)CC4)cn3)nc12 (stereo partly drawn) [Compound 1193]	< 10	≥ 100	–
CC(C)Nc1nc([C@@H](C)O)cc2cnc(Nc3ccc(CN4CCN(C(=O)CN(C)C)CC4)cn3)nc12 [Compound 1194]	< 10	≥ 100	–
CCCNc1nc([C@@H](C)O)cc2cnc(Nc3ccc(CN4CCC[C@@H](O)C4)cn3)nc12 [Compound 1195]	< 10	≥ 100	–
CC(C)Nc1nc([C@@H](C)O)cc2cnc(Nc3ccc(CN4CCC[C@@H](O)C4)cn3)nc12 [Compound 1196]	< 10	≥ 100	–
C[C@@H](O)c1cc2cnc(Nc3ccc(CN4CCC[C@@H](O)C4)cn3)nc2c(NC(C)(C)C)n1 [Compound 1197]	< 10	≥ 100	–
CCCNc1nc([C@@H](C)O)cc2cnc(Nc3ccc(CN4CCC[C@H](O)C4)cn3)nc12 [Compound 1198]	< 10	≥ 100	–
CC(C)Nc1nc([C@@H](C)O)cc2cnc(Nc3ccc(CN4CCC[C@H](O)C4)cn3)nc12 [Compound 1199]	< 10	≥ 100	–
C[C@@H](O)c1cc2cnc(Nc3ccc(CN4CCC[C@H](O)C4)cn3)nc2c(NC(C)(C)C)n1 [Compound 1200]	< 10	≥ 100	–
C[C@@H](O)c1cc2cnc(Nc3ccc(CN4CCN(CCO)CC4)cn3)nc2c(NC2(C)CC2)n1 [Compound 1201]	< 10	≥ 100	–
CCNc1nc([C@@H](C)O)c(F)c2cnc(Nc3ccc(CN4CCN(CCO)CC4)cn3)nc12 [Compound 1202]	< 10	≥ 100	–
CCNc1nc([C@@H](C)O)cc2cnc(Nc3ccc(CN4CCN(CCO)CC4(C)C)cn3)nc12 [Compound 1203]	10 to 100	≥ 100	–
C[C@@H](O)c1cc2cnc(Nc3ccc(CN4CCN(CCO)CC4)cn3)nc2c(NC2CC(F)(F)C2)n1 [Compound 1204]	< 10	≥ 100	–
C[C@@H](O)c1cc2cnc(Nc3ccc(CN4CCN(CCO)CC4)cn3)nc2c(NC23CC(C2)C3)n1 [Compound 1205]	< 10	≥ 100	–
CCCNc1nc([C@@H](C)O)cc2cnc(Nc3ccc(CN4CCN(CCO)[C@@H](C)C4)cn3)nc12 [Compound 1208]	< 10	≥ 100	–
CCCNc1nc([C@@H](C)O)cc2cnc(Nc3ccc(CN4CCN(CCO)[C@H](C)C4)cn3)nc12 [Compound 1209]	< 10	≥ 100	–
C[C@@H](O)c1cc2cnc(Nc3ccc(N4CCNCC4=O)cn3)nc2c(NC2CC(F)C2)n1 (stereo partly drawn) [Compound 1210]	< 10	≥ 100	–

SMILES	IC50 (CDK4/cyclin D3) [nM]	IC50 (CDK2/cyclin A2) [nM]	IC50 (CDK6/cyclin D3) [nM]
C[C@@H](O)c1cc2cnc(Nc3ccc(N4CCNCC4=O)cn3)nc2c(NC2CC(F)(F)C2)n1 [Compound 1211]	10 to 100	≥ 100	–
C[C@@H](O)c1cc2cnc(Nc3ccc(N4CCNCC4)cn3)nc2c(NCCCF)n1 [Compound 1212]	< 10	≥ 100	–
C[C@@H](O)c1cc2cnc(Nc3ccc(CN4CCN(CCO)CC4)cn3)nc2c(NCCC(F)F)n1 [Compound 1213]	< 10	≥ 100	–
C[C@@H](O)c1cc2cnc(Nc3ccc(CN4CCN(CCO)CC4)cn3)nc2c(NCCC(F)(F)F)n1 [Compound 1214]	< 10	≥ 100	–
C[C@@H](O)c1cc2cnc(Nc3ccc(CN4CCN(CCO)CC4)cn3)nc2c(NCC(C)(F)F)n1 [Compound 1215]	< 10	≥ 100	–
CCNc1nc([C@@H](C)O)cc2cnc(Nc3ccc(CN4CCCN(CCO)CC4)cn3)nc12 [Compound 1216]	< 10	≥ 100	–
CC(C)Nc1nc([C@H](C)O)cc2cnc(Nc3ccc(N4CCNCC4=O)cn3)nc12 [Compound 1217]	10 to 100	≥ 100	–
C[C@@H](O)c1cc2cnc(Nc3ccc(N4CCCC(C(=O)O)C4)nn3)nc2c(N[C@H]2CC[C@H](O)CC2)n1 (stereo partly drawn) [Compound 1218]	< 10	≥ 100	–
CC(C)Nc1nc([C@@H](C)O)cc2cnc(Nc3ccc(N4CCC(N(C)C)C4)nn3)nc12 (stereo partly drawn) [Compound 1219]	< 10	≥ 100	–
CC(C)Nc1nc([C@@H](C)O)cc2cnc(Nc3ccc(N4CCCC(N(C)C)C4)nn3)nc12 (stereo partly drawn) [Compound 1220]	< 10	≥ 100	–
CCCNc1nc([C@@H](C)O)cc2cnc(Nc3ccc(C(=O)N4CCN(C)CC4)cn3)nc12 [Compound 1221]	< 10	≥ 100	–
CCNc1nc([C@@H](C)O)cc2cnc(Nc3ccc(CN4CC5CCC(C4)N5C)cn3)nc12 [Compound 1222]	< 10	≥ 100	–
CCCNc1nc([C@@H](C)O)cc2cnc(Nc3ccc(CN4CC5CCC(C4)N5C)cn3)nc12 [Compound 1223]	< 10	≥ 100	–
CC(C)Nc1nc([C@@H](C)O)cc2cnc(Nc3ccc(CN4CC5CCC(C4)N5C)cn3)nc12 [Compound 1224]	< 10	≥ 100	–
CC(C)Nc1nc([C@@H](C)O)cc2cnc(Nc3ccc(CN4CCNCC4)nn3)nc12 [Compound 1225]	< 10	≥ 100	–
CO[C@H](C)c1cc2cnc(Nc3ccc(N4CCNCC4)nn3)nc2c(NCCCF)n1 [Compound 1226]	< 10	≥ 100	–
CO[C@H](C)c1cc2cnc(Nc3ccc(CN4CCNCC4)cn3)nc2c(NCCCF)n1 [Compound 1227]	< 10	≥ 100	–
CC(C)Nc1nc([C@@H](C)O)cc2cnc(Nc3ccc(N(C)CCN(C)C)cn3)nc12 [Compound 1228]	< 10	≥ 100	–
CC(C)Nc1nc(C2CCOC2)cc2cnc(Nc3ccc4c(n3)CCN(CCO)C4)nc12 (stereo not drawn) [Compound 1229]	< 10	≥ 100	–
CC(C)Nc1nc(C2CCOC2)cc2cnc(Nc3ccc4c(n3)CCN(CCN(C)C)C4)nc12 (stereo not drawn) [Compound 1230]	< 10	≥ 100	–
CC(C)Nc1nc(C2CCOC2)cc2cnc(Nc3ccc4c(n3)CCN(C(=O)CO)C4)nc12 (stereo not drawn) [Compound 1231]	< 10	≥ 100	–
CC(C)Nc1nc(C2CCOC2)cc2cnc(Nc3ccc4c(n3)CCN(CC(=O)O)C4)nc12 (stereo not drawn) [Compound 1232]	< 10	≥ 100	–
